Assays:
[1] = tested on: co-culture of three cancer cell lines; assay: Cell viability (CellTiter Glo) of compressed target pools, co-cultures of three cell lines (Target Compression); assay type: cell-based
Description: (§1) Total cell viability was measured for each cancer cell line using an Adenosine TriPhosphate (“ATP”) assay, and more specifically an ATP-based luminescence assay (i.e., CellTiter Glo). Each cancer drug was screened at multiple concentrations ranging from one nanomolar (nM) to ten micromolar (UM) in order to generate a dose-response curve and calculate a drug response score (“DRS”) for each cancer cell line. The DRS was calculated as a continuous function of multiple parameters of the non-linear dose-response curve, including the slope at the half-maximal effective concentration (also called “EC50”) and the top and bottom asymptotes of the dose-response curve. […] After total cell viability was measured and DRS was calculated, the DRS of each cancer cell line in the pool was deconvolved for each cancer drug.
(§2) Each pool represented a co-culture of three cell lines (“Target Compression”).

CCRF-HSB2 [2] = assay: ATP-based luminescence cell viability (CellTiter Glo), drug response score, CCRF-HSB2; conditions: CCRF-HSB2, screened individually (Compress: None)
JURKAT [3] = assay: ATP-based luminescence cell viability (CellTiter Glo), drug response score, JURKAT; conditions: screened individually (Compress: None)
CCRF-HSB2 [4] = assay: ATP-based luminescence cell viability (CellTiter Glo), drug response score, CCRF-HSB2
Description: (§3) As part of a screen, a drug could be screened at different concentrations ranging from a lowest concentration to a highest concentration. In such a scenario, multiple data structures may be obtained by the screening platform 210. […] With these multiple data structures, the analysis module 218 can generate a dose-response curve that describes the magnitude of the response of the biological target, as a function of exposure to different concentrations of the drug. Further, the analysis module 218 can calculate a metric that is indicative of the response of the biological target. In the event that the biological target is one of multiple biological targets that are introduced to the pools of drugs, the metric can be used by the screening platform 210 to better understand the relative magnitude of responses. One example of a metric is drug-response score (“DRS”). DRS can be calculated as a continuous function of multiple parameters of the non-linear dose-response curve, including the slope at the half-maximal effective concentration (also called “EC50”) and the top and bottom asymptotes of the dose-response curve. DRS can be calculated as follows: […]
(§4) where y is a continuous function of the variable dose x, a is the maximal response (i.e., the top asymptote of the curve), b is the slope of the curve, c is the IC50 (i.e., half-maximal inhibitory concentration), and d is the minimal response (i.e., the bottom asymptote of the curve). Other examples of metrics include those output by sigmoidal and Hill slide functions that, like DRS, incorporate multiple aspects of the dose-response curve into a continuous function.
as §1
(§5) DRS for these anchor cell lines are bolded and italicized. Anchors can be identified based on frequency of the cell lines in pools with high DRS versus low DRS. At a high level, an anchor is predicted to be the cell line with the lowest individual DRS. In order to deconvolute individual cell line DRS values from pool DRS values, the anchor can start with an assumed DRS value of zero. Each pool can then be expressed as a polynomial of variables (cell lines in the pool) and constants (DRS value of the pool). The DRS value of each cell line can then be solved for using the anchor value and overlapping polynomial expressions. When multiple values are calculated for the final target solved from the polynomials, then the anchor has a non-zero value that can be determined based on the difference in the calculated value of the final target.
as §2

REH = assay: ATP-based luminescence cell viability (CellTiter Glo), drug response score, REH; set-up: scale not given here; conditions: for DRS from deconvolution: Sample compression, 5 Pick 3 pools; for drug response score (DRS): screened individually (Compress: None)
NALM-6 = assay: ATP-based luminescence cell viability (CellTiter Glo), drug response score, NALM-6; conditions: for DRS from deconvolution: NALM-6, Target compression, 7 Pick 3 pools; for drug response score (DRS): NALM-6, screened individually (Compress: None)
Description: as §3, §4, §1, §5, §2

CCRF-CFM [5] = assay: ATP-based luminescence cell viability (CellTiter Glo), drug response score, CCRF-CFM; set-up: scale not given here; conditions: for DRS from deconvolution: Sample compression, 5 Pick 3 pools; for drug response score (DRS): screened individually (Compress: None)
[6] = tested on: pooled samples of three cancer cell lines; assay: Cell viability (CellTiter Glo) of compressed pooled samples of three individually cultured cell lines (Sample Compression); assay type: cell-based
Description: as §1
A benefit of the compression methodology is the ability to compress members of a library into pools for co-culture screens or compress individual cell cultures into pooled samples for measurement. For example, leukemia cell lines can interact in co-cultures through their immune receptors, which may result in cell activation, cytokine production, and other effects that may impact drug sensitivity and resistance. […] Instead of creating compressed target cells in pooled co-cultures, compression was instead used to enable individual cultures of each cell line, with pooled measurements to reduce reagents and instrument time. With individual cultures and sample compression, it was possible to accurately deconvolute DRS for each drug on each cell line, as shown in Table IV.

SUP-B15 [7] = assay: ATP-based luminescence cell viability (CellTiter Glo), drug response score, SUP-B15; set-up: scale not given here
Description: as §3, §4, §1, §5, §2

CCRF-CFM [8] = assay: ATP-based luminescence cell viability (CellTiter Glo), drug response score, CCRF-CFM; set-up: scale not given here; conditions: Target compression
Description: as §3, §4, §1, §5, §2

SUP-B15 [9] = assay: ATP-based luminescence cell viability (CellTiter Glo), drug response score, SUP-B15; set-up: scale not given here; conditions: SUP-B15, screened individually (Compress: None)
JURKAT [10] = assay: ATP-based luminescence cell viability (CellTiter Glo), drug response score, JURKAT; conditions: Target compression
Description: as §3, §4, §1, §5, §2

[11] = 5 Pick 3, Pool 1 (REH, SUP-B15, CCRF-CFM)
[12] = 5 Pick 3, Pool 2 (SUP-B15, CCRF-HSB2, MOLT-4)
[13] = 5 Pick 3, Pool 3 (SUP-B15, CCRF-CFM, CCRF-HSB2)
[14] = 5 Pick 3, Pool 4 (REH, CCRF-CFM, MOLT-4)
[15] = 5 Pick 3, Pool 5 (REH, CCRF-HSB2, MOLT-4)
[16] = 6 Pick 3, Pool 1 (REH, CCRF-CFM, MOLT-4)
[17] = 6 Pick 3, Pool 2 (REH, CCRF-HSB2, MOLT-4)
[18] = 6 Pick 3, Pool 3 (REH, CCRF-CFM, JURKAT)
[19] = 6 Pick 3, Pool 4 (SUP-B15, CCRF-HSB2, JURKAT)
[20] = 6 Pick 3, Pool 5 (SUP-B15, CCRF-CFM, JURKAT)
[21] = 6 Pick 3, Pool 6 (SUP-B15, CCRF-HSB2, MOLT-4)
[22] = 7 Pick 3, Pool 1 (SUP-B15, CCRF-CFM, JURKAT)
[23] = 7 Pick 3, Pool 2 (SUP-B15, CCRF-HSB2, NALM-6)
[24] = 7 Pick 3, Pool 3 (SUP-B15, CCRF-CFM, NALM-6)
[25] = 7 Pick 3, Pool 7 (CCRF-CFM, CCRF-HSB2, MOLT-4)
[26] = CCRF-HSB2, Sample compression, 5 Pick 3 pools
[27] = CCRF-HSB2, Target compression, 5 Pick 3 pools
[28] = CCRF-HSB2, Target compression, 6 Pick 3 pools
[29] = CCRF-HSB2, Target compression, 7 Pick 3 pools
[30] = SUP-B15, Sample compression, 5 Pick 3 pools
[31] = SUP-B15, Target compression, 5 Pick 3 pools
[32] = SUP-B15, Target compression, 6 Pick 3 pools
[33] = SUP-B15, Target compression, 7 Pick 3 pools

## N#Cc1ccnc(N2C(=O)CC[C@H]2C(=O)N(c2cncc(F)c2)[C@H](C(=O)NC2CC(F)(F)C2)c2ccccc2Cl)c1 [Ivosidenib]
[1]; [11]
  DRS of pool: 0.54
[1]; [12]
  DRS of pool: 0.60
[1]; [13]
  DRS of pool: 0.91
[1]; [14]
  DRS of pool: 0.63
[1]; [15]
  DRS of pool: 0.88
[1]; [16]
  DRS of pool: 0.60
[1]; [17]
  DRS of pool: 0.81
[1]; [18]
  DRS of pool: 0.77
[1]; [19]
  DRS of pool: 0.61
[1]; [20]
  DRS of pool: 0.57
[1]; [21]
  DRS of pool: 0.61
[1]; [22]
  DRS of pool: 0.57
[1]; [23]
  DRS of pool: 0.54
[1]; [24]
  DRS of pool: 0.34
[1]; 7 Pick 3, Pool 4 (REH, CCRF-HSB2, JURKAT)
  DRS of pool: 0.98
[1]; 7 Pick 3, Pool 5 (REH, MOLT-4, NALM-6)
  DRS of pool: 0.27
[1]; 7 Pick 3, Pool 6 (REH, MOLT-4, JURKAT)
  DRS of pool: 0.51
[1]; [25]
  DRS of pool: 0.95
CCRF-HSB2 [2]
  drug response score (DRS): 1.60
JURKAT [3]
  drug response score (DRS): 0.70
CCRF-HSB2 [4]; [26]
  DRS from deconvolution: 1.52
CCRF-HSB2 [4]; [27]
  DRS from deconvolution: 1.74
CCRF-HSB2 [4]; [28]
  DRS from deconvolution: 1.53
CCRF-HSB2 [4]; [29]
  DRS from deconvolution: 1.61
REH
  DRS from deconvolution: 0.48
  drug response score (DRS): 0.60
NALM-6
  DRS from deconvolution: 0.00
  drug response score (DRS): 0.00
CCRF-CFM [5]
  DRS from deconvolution: 0.99
  drug response score (DRS): 1.00
[6]; [11]
  DRS of pool: 0.52
[6]; [12]
  DRS of pool: 0.55
[6]; [13]
  DRS of pool: 0.82
[6]; [14]
  DRS of pool: 0.51
[6]; [15]
  DRS of pool: 0.74
SUP-B15 [7]; [30]
  DRS from deconvolution: 0.09
SUP-B15 [7]; [31]
  DRS from deconvolution: 0.00
SUP-B15 [7]; [32]
  DRS from deconvolution: 0.00
SUP-B15 [7]; [33]
  DRS from deconvolution: 0.00
CCRF-CFM [8]; 5 Pick 3 pools
  DRS from deconvolution: 1.15
CCRF-CFM [8]; 6 Pick 3 pools
  DRS from deconvolution: 0.89
CCRF-CFM [8]; 7 Pick 3 pools
  DRS from deconvolution: 1.01
SUP-B15 [9]
  drug response score (DRS): 0.00
JURKAT [10]; 6 Pick 3 pools
  DRS from deconvolution: 0.84
JURKAT [10]; 7 Pick 3 pools
  DRS from deconvolution: 0.70

## Cc1[nH]c2ccccc2c1CCNCc1ccc(/C=C/C(=O)NO)cc1 [Panobinostat]
[1]; [11]
  DRS of pool: 17.85
[1]; [12]
  DRS of pool: 18.46
[1]; [13]
  DRS of pool: 20.02
[1]; [14]
  DRS of pool: 15.81
[1]; [15]
  DRS of pool: 16.48
[1]; [16]
  DRS of pool: 15.05
[1]; [17]
  DRS of pool: 15.25
[1]; [18]
  DRS of pool: 14.41
[1]; [19]
  DRS of pool: 18.23
[1]; [20]
  DRS of pool: 17.93
[1]; [21]
  DRS of pool: 18.22
[1]; [22]
  DRS of pool: 17.85
[1]; [23]
  DRS of pool: 18.41
[1]; [24]
  DRS of pool: 18.84
[1]; [25]
  DRS of pool: 16.92
CCRF-HSB2 [2]
  drug response score (DRS): 17.40
JURKAT [3]
  drug response score (DRS): 13.20
CCRF-HSB2 [4]; [26]
  DRS from deconvolution: 18.63
CCRF-HSB2 [4]; [27]
  DRS from deconvolution: 19.75
CCRF-HSB2 [4]; [28]
  DRS from deconvolution: 17.30
CCRF-HSB2 [4]; [29]
  DRS from deconvolution: 17.26
REH
  DRS from deconvolution: 12.17
  drug response score (DRS): 12.60
NALM-6
  DRS from deconvolution: 15.85
  drug response score (DRS): 16.30
CCRF-CFM [5]
  DRS from deconvolution: 18.07
  drug response score (DRS): 17.50
[6]; [11]
  DRS of pool: 18.56
[6]; [12]
  DRS of pool: 19.17
[6]; [13]
  DRS of pool: 20.34
[6]; [14]
  DRS of pool: 14.93
[6]; [15]
  DRS of pool: 15.87
SUP-B15 [7]; [30]
  DRS from deconvolution: 25.45
SUP-B15 [7]; [31]
  DRS from deconvolution: 21.44
SUP-B15 [7]; [32]
  DRS from deconvolution: 22.36
SUP-B15 [7]; [33]
  DRS from deconvolution: 21.78
CCRF-CFM [8]; 5 Pick 3 pools
  DRS from deconvolution: 19.98
CCRF-CFM [8]; 6 Pick 3 pools
  DRS from deconvolution: 16.57
CCRF-CFM [8]; 7 Pick 3 pools
  DRS from deconvolution: 18.55
SUP-B15 [9]
  drug response score (DRS): 22.40
JURKAT [10]; 6 Pick 3 pools
  DRS from deconvolution: 14.37
JURKAT [10]; 7 Pick 3 pools
  DRS from deconvolution: 13.23

— patent US20260378560A1, “APPROACHES TO DESIGNING AND PERFORMING COMPRESSED BIOLOGICAL EXPERIMENTS AND SYSTEMS FOR IMPLEMENTING THE SAME” (EXVIVO LABS INC., priority 2023, published 2026)
